How the values were obtained:
[1] = test system: Z-138 cells; test: Inhibitory activity on tumor cell proliferation (Cell-Titer Glo, 8 days); format: cell-based; conditions: Homo sapiens, 192 h, read-out: Inhibition of cell proliferation Z-138 IC50
Protocol: Materials and cells: Z-138 cells were purchased from ATCC (USA); IMDM medium and penicillin-streptomycin were purchased from Sigma PLC. (USA); horse serum was purchased from Hyclone (USA); 96-well plate was purchased from Corning (USA); and Cell-Titer Glo reagent was purchased from Promega (USA).
(§1) Cell culture: Z-138 cells were cultured in an IMDM culture solution containing 10% Horse serum+1% penicillin−streptomycin at 37° C., 5% CO2. Cells in logarithmic growth phase were suitable for the experiment.
Detection of cell proliferation activity: The inhibitory activities of the compounds on the proliferation of Z-138 cells were detected by using the Cell-Titer Glo reagent. The concentrations of the cells were adjusted, and 180 μL was inoculated in each well of the 96-well plate (500/well) and equilibrated for 10-15 minutes at 37° C., 5% CO2. 20 μL of a culture solution containing the compounds was added into each well with the final concentration reaching 0-300 nM (initial concentration: 300 nM, 3-fold dilution, for 10 points), and the DMSO content was 0.1%. The cell plate was placed at 37° C., 5% CO2 and incubated for 8 days. Culture solution was replaced at day 4: 100 μL of the supernatant was slowly aspirated and 100 μL of a fresh culture solution containing the compounds was provided as a supplement while the concentrations of the compounds were held constant. The cell viability was detected by using the Cell-Titer Glo reagent.

[2] = biological target: T1, PRMT5/MEP50 (Homo sapiens, UniProt O14744); test: PRMT5 enzymatic activity inhibition experiment (AlphaScreen); format: biochemical
T1 construct: purchased BPS Bioscience Inc. (USA)
Description: Materials: PRMT5/MEP50 proteins were purchased from BPS Bioscience Inc. (USA); Histone H4 Peptide substrate was purchased from Sangon Biotech (Shanghai) Co., Ltd.; Anti-Histone H4 (symmetric dimethyl R3) antibody—ChIP Grade was purchased from Abcam PLC. (USA); S-(5′-Adenosyl)-L-methionine chloride dihydrochloride was purchased from Sigma PLC. (USA); 384-well plate, AlphaScreen Streptavidin Donor beads, AlphaScreen Protein A Acceptor beads, and Envision 2104 multi-label Reader were purchased from Perkin-Elmer Instruments (USA) Corporation; and Echo 550 Liquid Handler was purchased from Labcyte Inc. (USA).
Enzymatic activity assay: The compounds were added into a 384-well plate by using the Echo 550 Liquid Handler with the final concentration of 0-1000 nM (initial concentration: 1000 nM, 3-fold dilution, for 10 points), and the DMSO content was 0.5%. 10 μL of a 2× PRMT5/MEP50 solution was added into each well and incubated at room temperature for 30 minutes. 10 μL of 2× PRMT5/MEP50 substrate solution was added to each well to start the reaction and incubated at room temperature for 60 minutes. A 6× detection reagent containing AlphaScreen Protein A Acceptor beads and Anti-Histone H4 (symmetric dimethyl R3) antibodies was prepared and 5 μL was added to each well. The plate was incubated at room temperature for 60 minutes. A 6× detection reagent containing AlphaScreen Streptavidin Donor beads was prepared and 5 μL was added to each well. The plate was incubated at room temperature for 60 minutes. The signal values were detected by using the Envision.

[3] = Hepatocellular metabolic stability test, human hepatocytes
Description: Experimental materials: Human hepatocytes were purchased from Biopredic; mouse hepatocytes were purchased from BioIVT; acetonitrile and methanol were purchased from Merck & Co., Inc.; AOPI dyes were purchased from Nexcelom; dexamethasone was purchased from NIFDC; DMSO was purchased from Beijing Solarbio Science & Technology Co., Ltd.; DPBS (10×), GlutaMAX™-1 (100×) and recombinant human insulin were purchased form Gibco by Life Technologies; fetal bovine serum was purchased from Corning; formic acid was purchased from DIKMAPURE; Isotonic Percoll was purchased from GE Healthcare; alprazolam was purchased from Supelco; caffeine was purchased from ChromaDex.inc; and HEPES, tolbutamide and Williams' Medium E were purchased from Sigma.
The powder of a test substance was formulated with DMSO into a stock solution with a high concentration, which was diluted to a working solution of 100 μM with acetonitrile prior to use. The final concentration of the test substance was 1 μM.
49.5 mL of Williams'E Medium and 0.5 mL of GlutaMAX were mixed as an incubation media. Hepatocyte thawing media and incubation media were placed in a 37° C. water-bath and pre-heated for at least 15 minutes prior to use. A tube of hepatocytes stored at an ultra-low temperature was taken and the hepatocytes were ensured to be at a frozen state at a low temperature prior to thawing. The hepatocytes were rapidly placed in a 37° C. water-bath and gently shaken until all the ice crystals were dispersed, and then after 70% ethanol was sprayed, the hepatocytes were transferred to a biosafety cabinet. The content of the tube was poured into a centrifugal tube containing 50 mL of thawing media and centrifuged at 100 g for 10 minutes. After centrifugation, the thawing media was aspirated, and a sufficient amount of incubation media was added to obtain a cell suspension with a cell density of about 1.5×10^6 cells/mL. The hepatocytes were counted, and the viable cell density was determined using Cellometer Vision, and the survival rate of the hepatocytes must be higher than 75%. The hepatocyte suspension was diluted by using the incubation media to a viable cell density of 0.5×10^6 viable cells/mL.
247.5 μL of viable cell (human hepatocytes or mouse hepatocytes) suspension or media were transferred into a 96-well deep-well plate, and the deep-well plate was placed in a vortex incubator and pre-heated for 10 minutes. Incubation of all the samples was performed in parallel duplicate. Test substance (2.5 μL, 100 μM) was added into each well to start the reaction and the deep-well plate was placed in the vortex incubator again. The samples were incubated, and 25 μL of the suspension was taken at 0, 15, 30, 60, 90 and 120 minutes, respectively. 125 μL of acetonitrile containing internal standard (100 nM alprazolam, 200 nM caffeine, and 100 nM tolbutamide) was added to terminate the reaction. The mixture was vortexed for 10 minutes and centrifuged at 3220 g, 4° C. for 30 minutes. After centrifugation, 100 μL of the supernatant was transferred into the loading plate and 150 μL of pure water was added and mixed uniformly for LC-MS/MS analysis.
All the data calculation was performed by the Microsoft Excel software. The peak area was detected by extracting the ion chromatogram. The in vitro half-life (t1/2) of the parent drug was detected by performing linear fitting of the natural logarithm of elimination percent of the parent drug and time.
The in vitro half-life (t1/2) was calculated by means of the slope:

[4] = test system: SDMA in Z-138 cells; test: Inhibitory activity on SDMA in cells (immunofluorescent assay); format: cell-based; conditions: Homo sapiens, 48 h, 2 days, read-out: Inhibition of SDMA in cells IC50
Description: Materials and cells: Z-138 cells were purchased from ATCC (USA); IMDM medium and penicillin-streptomycin were purchased from Sigma PLC. (USA); horse serum was purchased from Hyclone (USA); Hoechst antibodies were purchased from Invitrogen (USA); Alexa Fluor 488 goat anti-rabbit IgG antibodies were purchased from Invitrogen (USA); Anti-dimethyl-Arginine symmetric (SYM11) antibodies were purchased from Merck & Co., Inc. (USA); DPBS was purchased from Gibco (USA); Nonfat Dry milk was purchased from Cell Signaling Technology (USA); paraformaldehyde was purchased from Beijing Solarbio Science & Technology Co., Ltd.; 384-well plate and Echo 550 Liquid Handler were purchased from Labcyte Inc. (USA); and an ImageXpress Nano was purchased from Molecular Devices (USA).
as §1
Immunofluorescent assay: The effects of the compounds on SDMA in Z-138 cells were detected by using immunofluorescence. The cells were adjusted to the concentration of 1*10^5/mL and 40 μL was inoculated in each well of the 384-well plate (4000/well) and equilibrated for 10-15 minutes at 37° C., 5% CO2. The compound was added into a 384-well plate by using the Echo 550 Liquid Handler with the final concentration of 0-300 nM (initial concentration: 300 nM, 3-fold dilution, for 10 points), and the DMSO content was 0.1%. The cell plate was placed at 37° C., 5% CO2 and incubated for 2 days. 40 μL of 8% paraformaldehyde was added into each well and incubated at room temperature for 30 minutes. The supernatant was discarded, the plate was washed with DPBS, and 40 μL of 0.5% PBST (phosphate buffer with Tween) was added into each well and incubated at room temperature for 60 minutes. The supernatant was discarded, the plate was washed with 0.05% PBST, and 40 μL of a blocking solution (1% Nonfat milk in 0.05% PBST) was added into each well and incubated at room temperature for 60 minutes. The supernatant was discarded, and 20 μL of the primary antibody (SYM11, diluted with a blocking solution at 1:500) was added into each well and maintained at 4° C. overnight. The supernatant was discarded, the plate was washed with 0.05% PBST, 20 μL of the secondary antibody (Alexa Fluor 488 goat anti-rabbit and Hoechst, diluted with a blocking solution at 1:1000 and 1:5000, respectively) was added to each well and incubated at room temperature for 60 minutes. The supernatant was discarded, the plate was washed with 0.05% PBST, and the fluorescent intensity was detected with ImageXpress Nano.

T1 sequence (O14744 2-637 limits assumed): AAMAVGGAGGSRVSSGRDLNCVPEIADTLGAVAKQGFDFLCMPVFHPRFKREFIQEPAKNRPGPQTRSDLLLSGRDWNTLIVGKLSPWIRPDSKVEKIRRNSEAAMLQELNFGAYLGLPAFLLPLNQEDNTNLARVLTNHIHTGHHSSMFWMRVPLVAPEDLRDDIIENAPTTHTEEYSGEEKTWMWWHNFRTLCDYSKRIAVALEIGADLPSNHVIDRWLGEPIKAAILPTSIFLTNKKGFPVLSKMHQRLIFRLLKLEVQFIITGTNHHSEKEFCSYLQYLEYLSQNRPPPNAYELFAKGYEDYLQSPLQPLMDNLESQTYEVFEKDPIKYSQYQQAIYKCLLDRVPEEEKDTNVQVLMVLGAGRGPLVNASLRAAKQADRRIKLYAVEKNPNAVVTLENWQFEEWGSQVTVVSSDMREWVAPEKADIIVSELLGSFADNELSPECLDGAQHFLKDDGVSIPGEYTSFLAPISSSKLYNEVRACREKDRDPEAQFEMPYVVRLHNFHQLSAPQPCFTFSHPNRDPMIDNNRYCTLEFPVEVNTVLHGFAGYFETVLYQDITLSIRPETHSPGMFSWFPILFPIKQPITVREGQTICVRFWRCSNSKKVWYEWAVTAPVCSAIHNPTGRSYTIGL
T1 sequence (Q9BQA1 2-342 partner limits assumed): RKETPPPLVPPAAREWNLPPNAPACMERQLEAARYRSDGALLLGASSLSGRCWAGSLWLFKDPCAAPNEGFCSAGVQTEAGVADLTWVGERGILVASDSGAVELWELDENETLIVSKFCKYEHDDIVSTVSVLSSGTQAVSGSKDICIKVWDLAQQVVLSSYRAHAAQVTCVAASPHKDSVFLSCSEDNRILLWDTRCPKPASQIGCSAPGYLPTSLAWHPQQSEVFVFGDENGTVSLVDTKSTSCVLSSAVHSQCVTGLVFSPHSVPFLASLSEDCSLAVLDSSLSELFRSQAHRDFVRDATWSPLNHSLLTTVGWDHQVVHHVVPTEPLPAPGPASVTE

Q: Which results are given for `CCN1CCN(C[C@@H](O)[C@@H]2Cc3ccccc3CN2)C(=O)c2ccc(C(=O)N3CCC4(CC3)CC(OC)C4)cc21.Cl` [Compound 002, 1-ethyl-4-((R)-2-hydroxy-2-((S)-1,2,3,4-tetrahydroisoquinolin-3-yl)ethyl)-8-(2-methoxy-7-azaspiro[3.5]nonane-7-carbonyl)-1,2,3,4-tetrahydro-5H-benzo[e][1,4]diazepin-5-one hydrochloride]?
A: IC50 [1]: 2.19 nM; IC50 [2]: 4.05 nM; half-life at 1 μM [3]: 4.21 h; IC50 [4]: 1.4 nM

Reference: patent US20230250108A1, “TETRAHYDROISOQUINOLINE COMPOUNDS AND USE THEREOF” (JIANGSU SIMCERE PHARMACEUTICAL CO., LTD., priority 2020, published 2023)
